# Experimental data reported in PMC12002099, “Recombinant Production and Characterization of Six Ene‐reductases from Penicillium steckii” (Chembiochem, 2025).
# How the values were obtained:
# [1] = molecular target: T1, PsOYE2 (Penicillium steckii, UniProt A0A1V6SMJ6); test: X-ray crystal structure, […] Å; assay type: binding; conditions: co-purified cofactor; site completed by adjacent protomer
# T1 construct: gene PENSTE_c029G02105; tag-free, His-SUMO fusion cut off, expressed in E. coli; homodimer; residues 2-413 seen, C-terminus 414-422 not visible
# T1 sequence (A0A1V6SMJ6 1-422): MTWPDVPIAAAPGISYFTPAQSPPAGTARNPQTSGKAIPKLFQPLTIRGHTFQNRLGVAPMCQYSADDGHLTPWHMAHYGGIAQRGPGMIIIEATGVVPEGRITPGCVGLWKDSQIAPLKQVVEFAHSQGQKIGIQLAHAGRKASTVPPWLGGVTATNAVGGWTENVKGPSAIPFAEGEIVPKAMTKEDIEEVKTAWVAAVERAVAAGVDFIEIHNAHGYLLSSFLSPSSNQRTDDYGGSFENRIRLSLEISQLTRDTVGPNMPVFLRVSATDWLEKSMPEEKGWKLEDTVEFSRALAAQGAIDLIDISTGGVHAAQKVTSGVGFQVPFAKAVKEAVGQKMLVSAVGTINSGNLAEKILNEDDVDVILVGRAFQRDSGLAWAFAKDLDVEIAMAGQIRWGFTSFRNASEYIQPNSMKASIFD
# [2] = molecular target: T2, PsOYE1 (Penicillium steckii, UniProt A0A1V6T993); test: UV-Vis flavin spectrum of purified enzyme, FMN release on denaturation; assay type: binding; conditions: co-purified cofactor
# T2 construct: gene PENSTE_c009G01003
# T2 sequence (A0A1V6T993 1-408): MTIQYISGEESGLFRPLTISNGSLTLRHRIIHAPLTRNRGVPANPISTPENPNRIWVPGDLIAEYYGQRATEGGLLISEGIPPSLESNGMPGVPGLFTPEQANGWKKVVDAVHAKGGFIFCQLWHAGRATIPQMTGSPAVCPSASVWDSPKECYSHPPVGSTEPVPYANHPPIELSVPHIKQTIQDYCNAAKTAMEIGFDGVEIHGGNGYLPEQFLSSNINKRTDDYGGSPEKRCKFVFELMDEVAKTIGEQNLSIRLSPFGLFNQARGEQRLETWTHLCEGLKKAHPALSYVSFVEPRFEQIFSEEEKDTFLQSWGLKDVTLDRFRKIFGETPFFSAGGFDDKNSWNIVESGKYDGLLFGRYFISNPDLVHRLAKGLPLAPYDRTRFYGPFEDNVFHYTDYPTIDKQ
# [3] = molecular target: T3, PsOYE4 (Penicillium steckii, UniProt A0A1V6TQX2); test: as above; assay type: binding; conditions: co-purified cofactor
# T3 construct: gene PENSTE_c003G03501
# [4] = molecular target: T4, PsOYE3 (Penicillium steckii, UniProt A0A1V6SNM3); test: as above; assay type: binding; conditions: co-purified cofactor
# T4 construct: gene PENSTE_c027G02138
# T4 sequence (A0A1V6SNM3 1-421): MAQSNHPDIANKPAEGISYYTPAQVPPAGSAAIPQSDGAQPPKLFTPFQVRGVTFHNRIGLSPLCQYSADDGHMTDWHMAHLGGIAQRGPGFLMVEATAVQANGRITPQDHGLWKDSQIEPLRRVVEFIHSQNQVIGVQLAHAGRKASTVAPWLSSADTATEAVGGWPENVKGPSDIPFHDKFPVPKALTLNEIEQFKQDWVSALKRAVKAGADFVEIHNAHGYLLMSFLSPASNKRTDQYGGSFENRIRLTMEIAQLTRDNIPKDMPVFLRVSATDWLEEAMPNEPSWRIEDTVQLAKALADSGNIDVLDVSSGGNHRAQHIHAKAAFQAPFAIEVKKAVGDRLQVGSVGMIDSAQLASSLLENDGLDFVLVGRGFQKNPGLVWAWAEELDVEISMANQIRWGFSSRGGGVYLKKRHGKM
# [5] = molecular target: T5, PsOYE6 (Penicillium steckii, UniProt A0A1V6SJW2); test: as above; assay type: binding; conditions: co-purified cofactor
# T5 construct: gene PENSTE_c042G09698
# T5 sequence (A0A1V6SJW2 1-370): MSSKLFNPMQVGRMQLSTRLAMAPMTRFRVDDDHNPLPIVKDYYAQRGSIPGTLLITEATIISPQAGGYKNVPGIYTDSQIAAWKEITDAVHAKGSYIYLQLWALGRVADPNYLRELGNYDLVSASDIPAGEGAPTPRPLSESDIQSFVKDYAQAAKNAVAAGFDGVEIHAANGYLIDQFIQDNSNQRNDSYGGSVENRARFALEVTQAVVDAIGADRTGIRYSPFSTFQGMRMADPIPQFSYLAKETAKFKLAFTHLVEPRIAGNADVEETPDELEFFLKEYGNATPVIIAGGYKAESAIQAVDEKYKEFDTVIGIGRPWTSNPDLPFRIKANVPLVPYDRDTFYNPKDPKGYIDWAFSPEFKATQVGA
# [6] = molecular target: T3, PsOYE4; test: steady-state kinetics, NADPH consumption, Michaelis-Menten fit; assay type: biochemical; conditions: co-substrate p-benzoquinone
# Description: steady-state kinetics, NADPH consumption, Michaelis-Menten fit on PsOYE4
Compound,"X-ray crystal structure, 2.3 Å [1]","UV-Vis flavin spectrum of purified enzyme, FMN release on denaturation [2]","UV-Vis flavin spectrum of purified enzyme, FMN release on denaturation [3]","UV-Vis flavin spectrum of purified enzyme, FMN release on denaturation [4]","UV-Vis flavin spectrum of purified enzyme, FMN release on denaturation [5]",Km [6]
Cc1cc2nc3c(=O)[nH]c(=O)nc-3n(C[C@H](O)[C@H](O)[C@H](O)COP(=O)(O)O)c2cc1C [FMN],"The FMN cofactor, situated on the C‐terminal side of the barrel, has interactions","Expression and subsequent purification led to reasonably high yields of pure, soluble, and FMN‐bound proteins","Expression and subsequent purification led to reasonably high yields of pure, soluble, and FMN‐bound proteins","Expression and subsequent purification led to reasonably high yields of pure, soluble, and FMN‐bound proteins","Expression and subsequent purification led to reasonably high yields of pure, soluble, and FMN‐bound proteins",–
NC(=O)C1=CN([C@@H]2O[C@H](COP(=O)(O)OP(=O)(O)OC[C@H]3O[C@@H](n4cnc5c(N)ncnc54)[C@H](OP(=O)(O)O)[C@@H]3O)[C@@H](O)[C@H]2O)C=CC1 [NADPH],–,–,–,–,–,300 ± 100 µM
